Values quoted from earlier work in patent US20040089561A1, “Method and package for storing a pressurized container containing a drug” (priority 1999, published 2004).

Conditions: water in the propellant

SMILES | maximum water solubility
FC(F)(Cl)Cl [CFC 12] | about 130 ppm
FC(F)(Cl)C(F)(F)Cl [CFC 114] | about 130 ppm
FCC(F)(F)F [HFC 134a] | about 2200 ppm
